# Test results taken from patent US4055715A, “Method of producing 1-N-[L-(-)-α-hydroxy-γ-aminobutyryl]XK-62-2” (Abbott Laboratories, priority 1974, dated 1977).
# Where two headings read alike, the source gives them in different places.
# How the values were obtained:
# Proteus vulgaris 6897 = assay: Agar dilution MIC, pH 7.2 (Table 2); assay type: cell-based
# [1] = test system: Pseudomonas aeruginosa BMH 1; assay: Agar dilution MIC, pH 7.2 (Table 2); assay type: cell-based
# [2] = test system: Proteus vulgaris ATCC 6897; assay: microbe, parasite or virus in culture; assay type: cell-based
# [3] = test system: Staphylococcus aureus 209 P; assay: Agar dilution MIC, pH 7.2 (Table 2); assay type: cell-based; conditions: pH 7.2, read-out: Minimum Inhibitory Concentration
# [4] = test system: Shigella sonnei ATCC 9290; assay: microbe, parasite or virus in culture; assay type: cell-based
# Providencia sp. 164 = assay: Agar dilution MIC, pH 7.2 (Table 2); assay type: cell-based; conditions: Providencia sp. 164, produces gentamicin acetyltransferase Type II, read-out: Minimum Inhibitory Concentration
# [5] = test system: Pseudomonas aeruginosa KY 8510; assay: Agar dilution MIC, pH 7.2 (Table 2); assay type: cell-based
# [6] = test system: Staphylococcus aureus Smith; assay: Agar dilution MIC, pH 7.2 (Table 2); assay type: cell-based; conditions: pH 7.2, read-out: Minimum Inhibitory Concentration
# [7] = test system: Bacillus subtilis No. 10707; assay: Agar-dilution MIC, pH 8.0 (Table 1); assay type: cell-based
# [8] = test system: Pseudomonas aeruginosa BMH 1; assay: Agar-dilution MIC, pH 8.0 (Table 1); assay type: cell-based
# Escherichia coli T-2 = assay: Agar dilution MIC, pH 7.2 (Table 2); assay type: cell-based
# [9] = test system: Bacillus subtilis ATCC 6633; assay: Agar dilution MIC, pH 7.2 (Table 2); assay type: cell-based
# [10] = test system: Klebsiella pneumoniae No. 8045; assay: Agar dilution MIC, pH 7.2 (Table 2); assay type: cell-based
# [11] = test system: Pseudomonas aeruginosa KY 8511; assay: Agar dilution MIC, pH 7.2 (Table 2); assay type: cell-based
# [12] = test system: Krebsiella pneumoniae ATCC 10031; assay: Agar-dilution MIC, pH 8.0 (Table 1); assay type: cell-based; conditions: Klebsiella pneumoniae
# Escherichia coli T-5 = assay: Agar dilution MIC, pH 7.2 (Table 2); assay type: cell-based
# Proteus mirabilis 1287 = assay: Agar dilution MIC, pH 7.2 (Table 2); assay type: cell-based
# Escherichia coli KY 8349 = assay: Agar dilution MIC, pH 7.2 (Table 2); assay type: cell-based; conditions: KY8349, E. coli KY 8349, produces neomycin-kanamycin phosphotransferase Type I, read-out: Minimum Inhibitory Concentration
# Proteus morganii KY 4298 = assay: Agar dilution MIC, pH 7.2 (Table 2); assay type: cell-based; conditions: Morganella morganii
# [13] = test system: Salmonella typhosa ATCC 9992; assay: Agar-dilution MIC, pH 8.0 (Table 1); assay type: cell-based; conditions: Salmonella enterica, pH 8, read-out: Minimum Inhibitory Concentration
# [14] = test system: Pseudomonas aeruginosa KY 8516; assay: Agar dilution MIC, pH 7.2 (Table 2); assay type: cell-based
# Escherichia coli KY 8321 = assay: Agar dilution MIC, pH 7.2 (Table 2); assay type: cell-based
# Escherichia coli ATCC 26 = assay: Agar-dilution MIC, pH 8.0 (Table 1); assay type: cell-based
# Escherichia coli KY 8327 [15] = assay: Agar dilution MIC, pH 7.2 (Table 2); assay type: cell-based; conditions: KY8327, E. coli KY 8327, read-out: Minimum Inhibitory Concentration
# Escherichia coli KY 8327 [16] = assay: Agar-dilution MIC, pH 8.0 (Table 1); assay type: cell-based; conditions: Escherichia coli, KY8327; E. coli KY 8327, produces gentamicin adenyltransferase; agar-dilution, pH 8.0; read-out: Minimum Inhibitory Concentration
# From the text: (§1) The former bacterium inactivates kanamycins and gentamicins by adenylation, and the latter inactivates gentamicins by acetylation.
# Escherichia coli KY 8348 [17] = assay: Agar-dilution MIC, pH 8.0 (Table 1); assay type: cell-based; conditions: Escherichia coli, KY8348; E. coli KY 8348, produces gentamicin acetyltransferase Type I; agar-dilution, pH 8.0; read-out: Minimum Inhibitory Concentration
# From the text: as §1
# [18] = test system: Pseudomonas aeruginosa KY 8512; assay: Agar dilution MIC, pH 7.2 (Table 2); assay type: cell-based
# [19] = test system: Staphylococcus aureus ATCC 6538P; assay: Agar-dilution MIC, pH 8.0 (Table 1); assay type: cell-based; conditions: ATCC6538P
# Sarcina lutea ATCC 9341 = assay: Agar dilution MIC, pH 7.2 (Table 2); assay type: cell-based; conditions: Micrococcus luteus
# Escherichia coli KY 8348 [20] = assay: Agar dilution MIC, pH 7.2 (Table 2); assay type: cell-based; conditions: KY8348, E. coli KY 8348, produces gentamicin acetyltransferase Type I, read-out: Minimum Inhibitory Concentration
# Proteus rettgeri KY 4288 = assay: Agar dilution MIC, pH 7.2 (Table 2); assay type: cell-based; conditions: Providencia rettgeri, KY4288, P. rettgeri KY 4288, read-out: Minimum Inhibitory Concentration
# [21] = Acute toxicity in mice, intravenous injection; conditions: mouse, in vivo
structure (smiles),measurement,setting,value
"NC[C@H]1O[C@H](O[C@H]2[C@H](O)[C@@H](O[C@H]3O[C@H](CO)[C@@H](O)[C@H](N)[C@H]3O)[C@H](N)C[C@@H]2N)[C@H](O)[C@@H](O)[C@@H]1O [Kanamycin A, kanamycin A]",MIC,"Proteus vulgaris 6897; Proteus vulgaris, 6897, pH 7.2, read-out: Minimum Inhibitory Concentration",3.12 µg/mL
same,MIC,"[1]; BMH1, pH 7.2, read-out: Minimum Inhibitory Concentration",12.5 µg/mL
same,MIC,"[2]; ATCC6897, pH 8, read-out: Minimum Inhibitory Concentration",0.16 µg/mL
same,MIC,[3]; 209P,0.2 µg/mL
same,MIC,"[4]; ATCC9290, pH 8, read-out: Minimum Inhibitory Concentration",0.16 µg/mL
same,MIC,Providencia sp. 164,> 100 µg/mL
same,MIC,"[5]; KY8510, pH 7.2, read-out: Minimum Inhibitory Concentration",100 µg/mL
same,MIC,[6],0.2 µg/mL
same,MIC,"[7]; NO.10707, pH 8, read-out: Minimum Inhibitory Concentration",0.021 µg/mL
same,MIC,"[8]; BMH1, pH 8, read-out: Minimum Inhibitory Concentration",5.2 µg/mL
same,MIC,"Escherichia coli T-2; T2, pH 7.2, read-out: Minimum Inhibitory Concentration",1.56 µg/mL
same,MIC,"[9]; ATCC6633, pH 7.2, read-out: Minimum Inhibitory Concentration",0.2 µg/mL
same,MIC,"[10]; NO.8045, pH 7.2, read-out: Minimum Inhibitory Concentration",0.4 µg/mL
same,MIC,"[11]; KY8511, pH 7.2, read-out: Minimum Inhibitory Concentration",100 µg/mL
same,MIC,"[12]; ATCC10031, pH 8, read-out: Minimum Inhibitory Concentration",0.042 µg/mL
same,MIC,"Escherichia coli T-5; T5, pH 7.2, read-out: Minimum Inhibitory Concentration",1.56 µg/mL
same,MIC,"Proteus mirabilis 1287; Proteus mirabilis, 1287, pH 7.2, read-out: Minimum Inhibitory Concentration",6.25 µg/mL
same,MIC,Escherichia coli KY 8349,> 100 µg/mL
same,MIC,"Proteus morganii KY 4298; KY4298, pH 7.2, read-out: Minimum Inhibitory Concentration",1.56 µg/mL
same,MIC,[13],0.088 µg/mL
same,MIC,"[14]; KY8516, pH 7.2, read-out: Minimum Inhibitory Concentration",> 100 µg/mL
same,MIC,"Escherichia coli KY 8321; KY8321, pH 7.2, read-out: Minimum Inhibitory Concentration",100 µg/mL
same,MIC,"Escherichia coli ATCC 26; ATCC26, pH 8, read-out: Minimum Inhibitory Concentration",0.16 µg/mL
same,MIC,Escherichia coli KY 8327 [15],50 µg/mL
same,MIC,Escherichia coli KY 8327 [16],1.04 µg/mL
same,MIC,Escherichia coli KY 8348 [17],0.041 µg/mL
same,MIC,"[18]; KY8512, pH 7.2, read-out: Minimum Inhibitory Concentration",12.5 µg/mL
same,MIC,"[19]; pH 8, read-out: Minimum Inhibitory Concentration",0.021 µg/mL
same,MIC,"Sarcina lutea ATCC 9341; ATCC9341, pH 7.2, read-out: Minimum Inhibitory Concentration",6.25 µg/mL
CNC[C@@H]1CC[C@@H](N)[C@@H](O[C@H]2[C@H](O)[C@@H](O[C@H]3OC[C@](C)(O)[C@H](NC)[C@H]3O)[C@H](N)C[C@@H]2N)O1 [XK-62-2],MIC,"Proteus vulgaris 6897; Proteus vulgaris, P. vulgaris 6897, agar dilution, pH 7.2, read-out: Minimum Inhibitory Concentration",0.78 µg/mL
same,MIC,"[1]; BMH1, P. aeruginosa BMH 1, agar dilution, pH 7.2, read-out: Minimum Inhibitory Concentration",0.78 µg/mL
same,MIC,"[2]; ATCC6897, P. vulgaris ATCC 6897, agar-dilution, pH 8.0, read-out: Minimum Inhibitory Concentration",0.033 µg/mL
same,MIC,"[3]; S. aureus 209 P, agar dilution",0.1 µg/mL
same,MIC,Escherichia coli KY 8348 [20],12.5 µg/mL
same,MIC,"[4]; ATCC9290, S. sonnei ATCC 9290, agar-dilution, pH 8.0, read-out: Minimum Inhibitory Concentration",0.033 µg/mL
same,MIC,Providencia sp. 164,100 µg/mL
same,MIC,"[5]; KY8510, P. aeruginosa KY 8510, produces kanamycin acetyltransferase, agar dilution, pH 7.2, read-out: Minimum Inhibitory Concentration",1.56 µg/mL
same,MIC,"[6]; S. aureus Smith, agar dilution",< 0.05 µg/mL
same,MIC,"[7]; B. subtilis No. 10707, agar-dilution, pH 8.0, read-out: Minimum Inhibitory Concentration",0.044 µg/mL
same,MIC,"[8]; BMH1, P. aeruginosa BMH 1, agar-dilution, pH 8.0, read-out: Minimum Inhibitory Concentration",0.52 µg/mL
same,MIC,"Escherichia coli T-2; T2, E. coli T-2, agar dilution, pH 7.2, read-out: Minimum Inhibitory Concentration",0.4 µg/mL
same,MIC,"[9]; ATCC6633, B. subtilis ATCC 6633, agar dilution, pH 7.2, read-out: Minimum Inhibitory Concentration",< 0.05 µg/mL
same,MIC,"[10]; K. pneumoniae No. 8045, agar dilution, pH 7.2, read-out: Minimum Inhibitory Concentration",0.1 µg/mL
same,MIC,"[11]; KY8511, P. aeruginosa KY 8511, produces gentamicin acetyltransferase Type I and neomycin-kanamycin phosphotransferase Type I, agar dilution, pH 7.2, read-out: Minimum Inhibitory Concentration",100 µg/mL
same,MIC,"[12]; ATCC10031, K. pneumoniae ATCC 10031, agar-dilution, pH 8.0, read-out: Minimum Inhibitory Concentration",0.004 µg/mL
same,MIC,"Escherichia coli T-5; T5, E. coli T-5, agar dilution, pH 7.2, read-out: Minimum Inhibitory Concentration",0.4 µg/mL
same,MIC,"Proteus mirabilis 1287; Proteus mirabilis, P. mirabilis 1287, agar dilution, pH 7.2, read-out: Minimum Inhibitory Concentration",0.78 µg/mL
same,MIC,Escherichia coli KY 8349,0.4 µg/mL
same,MIC,"Proteus morganii KY 4298; KY4298, P. morganii KY 4298, agar dilution, pH 7.2, read-out: Minimum Inhibitory Concentration",0.4 µg/mL
same,MIC,[13],0.008 µg/mL
same,MIC,"[14]; KY8516, P. aeruginosa KY 8516, probably produces kanamycin acetyltransferase, agar dilution, pH 7.2, read-out: Minimum Inhibitory Concentration",3.12 µg/mL
same,MIC,Proteus rettgeri KY 4288,0.4 µg/mL
same,LD50,[21],93 mg/kg
same,MIC,"Escherichia coli KY 8321; KY8321, E. coli KY 8321, produces gentamicin adenyltransferase and neomycin-kanamycin phosphotransferase Type II, agar dilution, pH 7.2, read-out: Minimum Inhibitory Concentration",3.12 µg/mL
same,MIC,"Escherichia coli ATCC 26; ATCC26, E. coli ATCC 26, agar-dilution, pH 8.0, read-out: Minimum Inhibitory Concentration",0.016 µg/mL
same,MIC,Escherichia coli KY 8327 [15],12.5 µg/mL
same,MIC,Escherichia coli KY 8327 [16],1.04 µg/mL
same,MIC,Escherichia coli KY 8348 [17],1.04 µg/mL
same,MIC,"[18]; KY8512, P. aeruginosa KY 8512, produces neomycin-kanamycin phosphotransferase Type I and II and streptomycin phosphotransferase, agar dilution, pH 7.2, read-out: Minimum Inhibitory Concentration",0.78 µg/mL
same,MIC,"[19]; S. aureus ATCC 6538P, agar-dilution, pH 8.0, read-out: Minimum Inhibitory Concentration",0.088 µg/mL
same,MIC,"Sarcina lutea ATCC 9341; ATCC9341, Sarcina lutea ATCC 9341, agar dilution, pH 7.2, read-out: Minimum Inhibitory Concentration",0.4 µg/mL
